Assay results published in patent US11905231B1, “Solid forms, salts and polymorphs of anti-fibrotic compounds” (Certa Therapeutics Pty Ltd, priority 2023, dated 2024).
In brackets after ≈: the same amount, converted by molar mass. Read-outs that look alike come from different tables or passages of the source.

Assays:
[1] = Dynamic Vapor Sorption (DVS) hygroscopicity; details: at 80% RH, 25° C., measured during 0% RH to 95% RH increase
Excerpt: The change in water content is recited as a % change in mass of the starting sample and all such water sorption (DVS) values recited herein will be understood to explicitly include numerical values within a +/−0.2% variance.
The humidity is held constant at 30% RH until the mass change of the sample reaches equilibrium, as determined by the rate of change of weight being 0.01%/minute or less. The humidity is then changed to the next step value and the consequent mass change measured, and so on.
The hygroscopicity values recited herein refer to total water gain since the start of the experiment only and so may not necessarily be equivalent to the actual total water content of the sample.

[2] = Oral pharmacokinetic study in Sprague-Dawley rats; details: rat; for F (fraction absorbed, bioavailability): based on AUCInf
Protocol: Bioavailability is determined by the equation AUC=F·D/CLT, wherein AUC is the area under the plot of plasma concentration, F is the absolute bioavailability, D is the dose, and CLT is the total clearance.
The rats received a single oral dose of 20 mg/kg body weight (b.w.). The doses were prepared as a 2.0 mg/mL suspension in a vehicle of 20 mM Na2HPO4 buffer containing 5% (v/v) DMSO, 0.4% (v/v) 1M NaOH and 0.4% (v/v) Tween 80 and a dose volume of 10 mL/kg b.w.
Pharmacokinetic analysis was performed on the average plasma concentration for each time point.

[3] = Thermogravimetric Analysis (TGA) weight loss; assay type: physicochemical; details: for Total weight loss by TGA: from r.t. to 350° C. (or to decomposition if lower); for Weight loss (TGA): when heated from about 25° C. to about 120° C.
physchem = details: 37 °C, thermodynamic from solid
Protocol: The term “FaSSIF media” refers to Fasted State Simulated Intestinal Fluid media prepared using FaSSIF powder and buffer concentrate obtained from the commercial source Biorelevant (London, UK, biorelevant.com). The FaSSIF powder contains sodium taurocholate, lecithin, sodium chloride, monobasic sodium phosphate and sodium hydroxide. The FaSSIF media is prepared as described at https://biorelevant.com/learning_center/what-is-fassif/. Briefly the pH6.5 buffer containing 0.42 g of NaOH, 3.95 g of NaH2PO4·H2O and 6.19 g of NaCl was dissolved in 0.9 L of purified water and the pH of the solution was adjusted to 6.5 using sodium hydroxide 1N or hydrochloric acid 1N and made up to volume (1 L) with purified water at room temperature. Dissolve 2.24 g of the FaSSIF powder in 0.5 L of the pH6.5 buffer, stirring until the powder is completely dissolved, and then make up to volume (1 L) with buffer at room temperature.
The samples were stirred using a magnetic stirrer at 37° C. […] The samples were filtered via centrifugation (12,000 rpm, 5 min). The supernatant was diluted (2×) with HPLC grade solvent and analyzed by HPLC.
HPLC gradient was as follows:
The pH 1.2, pH 4.5, and pH 6.8 media were prepared as standard aqueous buffered solutions following USP <39>.
As used herein, the term “FaSSIF media” means Fasted Stated Simulated Intestinal Fluid media prepared according to the method known in the art.

[4] = single oral dose 20 mg/kg, 0.5 h post dose
[5] = single oral dose 20 mg/kg, 1 h post dose
[6] = single oral dose 20 mg/kg, 2 h post dose
[7] = single oral dose 20 mg/kg, 4 h post dose
[8] = single oral dose 20 mg/kg, 8 h post dose
[9] = single oral dose 20 mg/kg, 24 h post dose
[10] = single oral dose 20 mg/kg, plasma
[11] = single oral dose 20 mg/kg, plasma, mean
[12] = single oral dose 20 mg/kg, plasma, extrapolated area under the curve
[13] = Sprague-Dawley, in vivo, po, 20 mg/kg
[14] = FaSSIF (pH 7.5), pH 7.5, fassif
[15] = FeSSIF (pH 7.8), pH 7.8, fessif
[16] = pH 1.2 aqueous buffer, pH 1.2, simulated gastric fluid

## C#CCOc1ccc(/C=C/C(=O)Nc2ccccc2C(=O)O)cc1OC.NC(CO)(CO)CO [Tris salt]
[1]
  Hygroscopicity by DVS: 1.61%
[1]; listed as tris(hydroxymethyl)aminomethane (Tris)
  Hygroscopicity by DVS: 1.61%
[2]; [4]
  Mean concentration (plasma): 21300 ng/mL
[2]; [5]
  Mean concentration (plasma): 36833 ng/mL
[2]; [6]
  Mean concentration (plasma): 31067 ng/mL
[2]; [7]
  Mean concentration (plasma): 14467 ng/mL
[2]; [8]
  Mean concentration (plasma): 11317 ng/mL
[2]; [9]
  Mean concentration (plasma): 650 ng/mL
[2]; [10]
  AUCExtr: 1.49%
[2]; [11]
  AUClast: 246.642 µg·h/mL
  Cmax: 37367 ng/mL
  t1/2: 4.02 h
  tmax: 1.33 h
[2]; [12]
  AUCInf: 250.596 µg·h/mL
[2]; single oral dose 20 mg/kg
  F (fraction absorbed, bioavailability): 51%
[3]; from 0° C. to 120° C.
  Weight loss by TGA: 0.65% from 0 °C to
[3]; from 120° C. to 150° C.
  Weight loss by TGA: 0.20% from 120 °C to
[3]; from r.t. to 120° C.
  Weight loss by TGA: 0.65% from r.t. to
[3]
  Total weight loss by TGA: 0.85% total weight
  Weight loss (TGA): 0.65%
pH 1.2
  1 h Solubility: 0.001 mg/mL
  24 h Solubility: 0.004 mg/mL
pH 4.5
  1 h Solubility: <0.001 mg/mL
  24 h Solubility: 0.002 mg/mL
pH 6.8
  1 h Solubility: 0.088 mg/mL
  24 h Solubility: 0.067 mg/mL
pH 7.5
  1 h Solubility: >5.03 mg/mL
  24 h Solubility: 4.641 mg/mL
pH 7.8
  1 h Solubility: >5.10 mg/mL
  24 h Solubility: 4.212 mg/mL

## C#CCOc1ccc(/C=C/C(=O)Nc2ccccc2C(=O)[O-])cc1OC.[K+] [Potassium salt]
[1]
  Hygroscopicity by DVS: 6.05%
[2]; [4]
  Mean concentration (plasma): 24600 ng/mL
[2]; [5]
  Mean concentration (plasma): 34467 ng/mL
[2]; [6]
  Mean concentration (plasma): 27200 ng/mL
[2]; [7]
  Mean concentration (plasma): 17000 ng/mL
[2]; [8]
  Mean concentration (plasma): 10850 ng/mL
[2]; [9]
  Mean concentration (plasma): 687 ng/mL
[2]; [10]
  AUCExtr: 1.68%
[2]; [11]
  AUClast: 244.45 µg·h/mL
  Cmax: 34733 ng/mL
  t1/2: 4.21 h
  tmax: 1.33 h
[2]; [12]
  AUCInf: 248.674 µg·h/mL
[2]; single oral dose 20 mg/kg
  F (fraction absorbed, bioavailability): 51%
[3]; from 25° C. to 57° C.
  Weight loss by TGA: 2.02% from 25 °C to
[3]; from 57° C. to 140° C.
  Weight loss by TGA: 4.40% from 57 °C to
[3]; from r.t. to 120° C.
  Weight loss by TGA: 5.34% from r.t. to
[3]
  Total weight loss by TGA: 6.42% total weight
FaSSIF (pH 7.5), 37° C., 1 h
  1 h Solubility: >5.14 mg/mL
FaSSIF (pH 7.5), 37° C., 24 h
  24 h Solubility: >5.14 mg/mL
FaSSIF, 37° C., 1 h
  1 h Solubility: 0.218 mg/mL
FaSSIF, 37° C., 24 h
  24 h Solubility: 0.211 mg/mL
FeSSIF (pH 7.8), 37° C., 1 h
  1 h Solubility: >5.14 mg/mL
FeSSIF (pH 7.8), 37° C., 24 h
  24 h Solubility: >5.14 mg/mL
FeSSIF, 37° C., 1 h
  1 h Solubility: 0.023 mg/mL
FeSSIF, 37° C., 24 h
  24 h Solubility: 0.025 mg/mL
pH 1.2 medium, 37° C., 1 h
  1 h Solubility: 0.018 mg/mL
pH 1.2 medium, 37° C., 24 h
  24 h Solubility: 0.007 mg/mL
pH 4.5 medium, 37° C., 1 h
  1 h Solubility: 0.030 mg/mL
pH 4.5 medium, 37° C., 24 h
  24 h Solubility: 0.006 mg/mL
pH 6.8 medium, 37° C., 1 h
  1 h Solubility: 0.111 mg/mL
pH 6.8 medium, 37° C., 24 h
  24 h Solubility: 0.078 mg/mL

## C#CCOc1ccc(/C=C/C(=O)Nc2ccccc2C(=O)O)cc1OC [Free form]
[2]; [13]
  AUCExtr: 2.10%
  AUCInf: 170.145 µg·h/mL
  AUClast: 166.522 µg·h/mL
  bioavailability: 35%
  half-life: 254 min
  tmax: 3.67 h
[2]; Sprague-Dawley, in vivo, po, 20 mg/kg, 0.5 h
  Mean concentration (plasma): 9947 ng/mL
[2]; Sprague-Dawley, in vivo, po, 20 mg/kg, 1 h
  Mean concentration (plasma): 16427 ng/mL
[2]; Sprague-Dawley, in vivo, po, 20 mg/kg, 2 h
  Mean concentration (plasma): 13217 ng/mL
[2]; Sprague-Dawley, in vivo, po, 20 mg/kg, 4 h
  Mean concentration (plasma): 11693 ng/mL
[2]; Sprague-Dawley, in vivo, po, 20 mg/kg, 8 h
  Mean concentration (plasma): 8990 ng/mL
[2]; Sprague-Dawley, in vivo, po, 20 mg/kg, 24 h
  Mean concentration (plasma): 586 ng/mL
[3]; from r.t. to 120° C.
  Weight loss by TGA: 1.83% from r.t. to
[3]
  Total weight loss by TGA: 1.83% total weight
physchem; [14]
  solubility at 1 h: 1340 µg/mL (≈ 3810 µM)
  solubility at 24 h: 1500 µg/mL (≈ 4270 µM)
physchem; FaSSIF, pH 6.5, fassif
  solubility at 1 h: 312 µg/mL (≈ 888 µM)
  solubility at 24 h: 103 µg/mL (≈ 293 µM)
physchem; [15]
  solubility at 1 h: 806 µg/mL (≈ 2290 µM)
  solubility at 24 h: 400 µg/mL (≈ 1140 µM)
physchem; FeSSIF, pH 5, fessif
  solubility at 1 h: 39 µg/mL (≈ 111 µM)
  solubility at 24 h: 18 µg/mL (≈ 51.2 µM)
physchem; [16]
  solubility at 1 h: 10 µg/mL (≈ 28.5 µM)
  solubility at 24 h: 4 µg/mL (≈ 11.4 µM)
physchem; pH 4.5 aqueous buffer
  solubility at 1 h: 35 µg/mL (≈ 99.6 µM)
  solubility at 24 h: 6 µg/mL (≈ 17.1 µM)
physchem; pH 6.8 aqueous buffer
  solubility at 1 h: 394 µg/mL (≈ 1120 µM)
  solubility at 24 h: 51 µg/mL (≈ 145 µM)

## C#CCOc1ccc(/C=C/C(=O)Nc2ccccc2C(=O)O)cc1OC.N [Ammonium salt]
[2]; single oral dose 20 mg/kg
  Maximum plasma concentration (Cmax) compared to the other tested compounds: highest maximum plasma concentration
  F (fraction absorbed, bioavailability): 64%
[2]; [4]
  Mean concentration (plasma): 32700 ng/mL
[2]; [5]
  Mean concentration (plasma): 44033 ng/mL
[2]; [6]
  Mean concentration (plasma): 35033 ng/mL
[2]; [7]
  Mean concentration (plasma): 20833 ng/mL
[2]; [8]
  Mean concentration (plasma): 14400 ng/mL
[2]; [9]
  Mean concentration (plasma): 575 ng/mL
[2]; [10]
  AUCExtr: 0.932%
[2]; [11]
  AUClast: 313.832 µg·h/mL
  Cmax: 44033 ng/mL
  t1/2: 3.62 h
  tmax: 1.00 h
[2]; [12]
  AUCInf: 317.034 µg·h/mL
[3]; from 0° C. to 100° C.
  Weight loss by TGA: 7.07% from 0 °C to
[3]; from 100° C. to 170° C.
  Weight loss by TGA: 4.48% from 100 °C to
[3]; from r.t. to 120° C.
  Weight loss by TGA: 8.94% from r.t. to
[3]
  Total weight loss by TGA: 11.55% total weight

## C#CCOc1ccc(/C=C/C(=O)Nc2ccccc2C(=O)O)cc1OC.CC(C)(C)N [tert-Butylamine (TBA) salt]
[1]
  Hygroscopicity by DVS: 1.07%
[1]; listed as tert-butylamine (TBA)
  Hygroscopicity by DVS: 1.07%
[1]; listed as tert-butylamine salt
  Hygroscopicity by DVS: about 1.07%
[2]; [4]
  Mean concentration (plasma): 18080 ng/mL
[2]; [5]
  Mean concentration (plasma): 26967 ng/mL
[2]; [6]
  Mean concentration (plasma): 29167 ng/mL
[2]; [7]
  Mean concentration (plasma): 17133 ng/mL
[2]; [8]
  Mean concentration (plasma): 15433 ng/mL
[2]; [9]
  Mean concentration (plasma): 918 ng/mL
[2]; [10]
  AUCExtr: 1.83%
[2]; [11]
  AUClast: 287.306 µg·h/mL
  Cmax: 32000 ng/mL
  t1/2: 4.18 h
  tmax: 1.67 h
[2]; [12]
  AUCInf: 292.817 µg·h/mL
[2]; single oral dose 20 mg/kg
  F (fraction absorbed, bioavailability): 59%
[3]; from 25° C. to 120° C.
  Weight loss by TGA: 0.94% from 25 °C to
[3]; from 120° C. to 190° C.
  Weight loss by TGA: 6.91% from 120 °C to
[3]; from r.t. to 120° C.
  Weight loss by TGA: 0.94% from r.t. to
[3]
  Total weight loss by TGA: 7.85% total weight
  Weight loss (TGA): 0.94%
[3]; listed as tert-butylamine salt
  Weight loss (TGA): about 0.94%
